Laboratory results reported in ChEMBL document CHEMBL1123800 (J Med Chem, 1987).

How the values were obtained:
Mustela putorius furo [1] = species: Mustela putorius furo; experiment: Inotropic activity as dose required to cause 20% positive or negative change in contractile force of papillary muscle from ferret (F).; type: functional, Muscle tissue
Canis familiaris [2] = experiment: Equieffective dose for mean arterial pressure in anesthetized dogs for a maximum dose of 1.0 mg/kg. Values Ranges From :0.2,0.4; type: functional, Canis lupus familiaris, Artery
Canis familiaris [3] = experiment: Equieffective dose for heart rate in anesthetized dogs for a maximum dose of 1.0 mg/kg. Values Ranges From :0.01-0.8; type: functional, Canis lupus familiaris
Canis familiaris [4] = experiment: Equieffective dose for contractility in anesthetized dogs for a maximum dose of 1.0 mg/kg. Values Ranges From :0.02-0.05; type: functional, Canis lupus familiaris
[5] = molecular target: cAMP phosphodiesterase (Canis familiaris); experiment: Inhibition of canine cardiac cAMP phosphodiesterase (cAMP-PDE)
Canis familiaris [6] = experiment: Equieffective dose for contractility in anesthetized dogs for a maximum dose of 3.0 mg/kg. Values Ranges From :0.05-0.9; type: functional, Canis lupus familiaris
Canis familiaris [7] = experiment: Equieffective dose for mean arterial pressure in anesthetized dogs for a maximum dose of 3.0 mg/kg. Values Ranges From :0.6-1.5; type: functional, Canis lupus familiaris, Artery
Canis familiaris [8] = experiment: Equieffective dose for heart rate in anesthetized dogs for a maximum dose of 3.0 mg/kg. Values Ranges From :0.08-0.6; type: functional, Canis lupus familiaris
Canis familiaris [9] = experiment: Equieffective dose for contractility in anesthetized dogs for a maximum dose of 0.3 mg/kg. Values Ranges From :0.01-0.2; type: functional, Canis lupus familiaris
Canis familiaris [10] = experiment: Equieffective dose for heart rate in anesthetized dogs for a maximum dose of 0.3 mg/kg. Values Ranges From :0.02-0.2; type: functional, Canis lupus familiaris
Canis familiaris [11] = experiment: Equieffective dose for mean arterial pressure in anesthetized dogs for a maximum dose of 0.3 mg/kg. 0.07-0.3; type: functional, Canis lupus familiaris, Artery
Canis familiaris [12] = experiment: Equieffective dose for mean arterial pressure in anesthetized dogs for a maximum dose of 3.0 mg/kg. Values Ranges From:0.1-1.4; type: functional, Canis lupus familiaris, Artery
Canis familiaris [13] = experiment: Equieffective dose for heart rate in anesthetized dogs for a maximum dose of 3.0 mg/kg. Values Ranges From:0.7-2; type: functional, Canis lupus familiaris
Canis familiaris [14] = experiment: Equieffective dose for contractility in anesthetized dogs for a maximum dose of 3.0 mg/kg. Values Ranges From:0.1-0.4; type: functional, Canis lupus familiaris
Mustela putorius furo [15] = species: Mustela putorius furo; experiment: Inotropic activity as dose required to cause 20% positive or negative change in contractile force of papillary muscle from ferret (F); type: functional; conditions: Muscle tissue
Canis familiaris [16] = experiment: Equieffective dose for mean arterial pressure in anesthetized dogs for a maximum dose of 1.0 mg/kg. Values Ranges From :0.04-1.0; type: functional, Canis lupus familiaris, Artery
Canis familiaris [17] = experiment: Equieffective dose for contractility in anesthetized dogs for a maximum dose of 1.0 mg/kg. Values Ranges From :0.03-0.07; type: functional, Canis lupus familiaris
Canis familiaris [18] = experiment: Equieffective dose for heart rate in anesthetized dogs for a maximum dose of 1.0 mg/kg. Values Ranges From :0.04-0.3; type: functional, Canis lupus familiaris
Canis familiaris [19] = experiment: Equieffective dose for heart rate in anesthetized dogs for a maximum dose of 0.1 mg/kg. Values Ranges From :0.009-0.02; type: functional, Canis lupus familiaris
Canis familiaris [20] = experiment: Equieffective dose for contractility in anesthetized dogs for a maximum dose of 0.1 mg/kg. Values Ranges From :0.005-0.07; type: functional, Canis lupus familiaris
Canis familiaris [21] = experiment: Equieffective dose for mean arterial pressure in anesthetized dogs for a maximum dose of 0.1 mg/kg. Values Ranges From :0.02-0.04; type: functional, Canis lupus familiaris, Artery
Canis familiaris [22] = experiment: Equieffective dose for mean arterial pressure in anesthetized dogs for a maximum dose of 3.0 mg/kg. Values Ranges From :2.0; type: functional, Canis lupus familiaris, Artery
Canis familiaris [23] = experiment: Equieffective dose for heart rate in anesthetized dogs for a maximum dose of 3.0 mg/kg. Values Ranges From :0.3-1.0; type: functional, Canis lupus familiaris
Canis familiaris [24] = experiment: Equieffective dose for contractility in anesthetized dogs for a maximum dose of 3.0 mg/kg. Values Ranges From :0.2-1.0; type: functional, Canis lupus familiaris
Canis familiaris [25] = experiment: Equieffective dose for contractility in anesthetized dogs for a maximum dose of 3.0 mg/kg.; type: functional, Canis lupus familiaris
Canis familiaris [26] = experiment: Equieffective dose for heart rate in anesthetized dogs for a maximum dose of 3.0 mg/kg. Values ranges from :0.05-0.2; type: functional, Canis lupus familiaris
Canis familiaris [27] = experiment: Equieffective dose for mean arterial pressure in anesthetized dogs for a maximum dose of 3.0 mg/kg. Values Ranges From: 0.2-2.4; type: functional, Canis lupus familiaris, Artery

Row | SMILES | C20 (Mustela putorius furo [1]) [µM] | IC50 [5] [µM] | other results
1 | CCc1[nH]c(O)nc1C(=O)c1ccc(-n2ccnc2C)cc1 | 0.7 |  | Mean arterial blood pressure (Canis familiaris [2]): 0.3; Heart rate (Canis familiaris [3]): 0.3; Contractility (LV dP/dt) (Canis familiaris [4]): 0.03
2 | CCc1[nH]c(O)nc1C(=O)c1ccc(Cn2ccnc2)cc1 | 4 | 30 | 
3 | CCc1[nH]c(O)nc1C(=O)c1ccc(-n2ccnc2C)c(C)c1 | 0.2 | 2 | 
4 | O=C1CCC(c2ccc(-n3ccnc3)cc2)=NN1 [IMAZODAN] | 0.3 |  | Contractility (LV dP/dt) (Canis familiaris [6]): 0.3; Mean arterial blood pressure (Canis familiaris [7]): 1; Heart rate (Canis familiaris [8]): 0.3
5 | Cc1[nH]c(O)nc1C(=O)c1ccc(-n2ccnc2CO)cc1 | 0.4 | 49 | 
6 | CCc1[nH]c(O)nc1C(=O)c1ccc(-n2ccnc2)cc1C | 0.2 | 4 | 
7 | Cc1[nH]c(=O)c(C#N)cc1-c1ccncc1 [MILRINONE] | 0.57 |  | Contractility (LV dP/dt) (Canis familiaris [9]): 0.09; Heart rate (Canis familiaris [10]): 0.06; Mean arterial blood pressure (Canis familiaris [11]): 0.2
8 | CCc1[nH]c(O)nc1C(=O)c1ccc(-n2ccnc2)c(C)c1 | 0.05 | 2 | 
9 | Cc1[nH]c(O)nc1C(=O)c1ccc(-n2ccnc2C)cc1 | 1 | 30 | Mean arterial blood pressure (Canis familiaris [12]): 0.6; Heart rate (Canis familiaris [13]): 0.8; Contractility (LV dP/dt) (Canis familiaris [14]): 0.3
10 | CCc1[nH]c(O)nc1C(=O)c1ccc(-n2cc(C)nc2CC)cc1 | 21 | 19 | 
11 | CCCc1nccn1-c1ccc(C(=O)c2[nH]c(O)nc2CC)cc1 | 1 | 29 | 
12 | CCc1[nH]c(O)nc1C(=O)c1ccc(-n2ccnc2C(C)C)cc1 | 16.3 | 40 | 
13 | Cc1[nH]c(O)nc1C(=O)c1ccc(-c2ncc[nH]2)cc1 | 1.1 | 27 | 
14 | CCc1[nH]c(O)nc1C(=O)c1ccc(-n2ccnc2CCC(C)C)cc1 | 21.7 | 7 | 
15 | Cc1[nH]c(O)nc1C(=O)c1ccc(-n2cnc3ccccc32)cc1 | 11 | 20 | 
16 | CCc1[nH]c(O)nc1C(=O)c1ccc(-n2ccnc2C)cc1C | 1.3 | 73 | 
17 | CCc1[nH]c(O)nc1C(=O)c1ccc(-n2cc[n+](C)c2C)cc1 |  | > 100 | C20 (Mustela putorius furo [15]): Not reached
18 | Cc1nc(=O)c(C#N)c(NCc2cccnc2)[nH]1 [PELRINONE] | 0.23 | 4 | Mean arterial blood pressure (Canis familiaris [16]): 0.4; Contractility (LV dP/dt) (Canis familiaris [17]): 0.04; Heart rate (Canis familiaris [18]): 0.1
19 | CCc1[nH]c(O)nc1C(=O)c1ccc(-c2ncc[nH]2)cc1 | 0.4 | 15 | 
20 | CCc1[nH]c(O)nc1C(=O)c1ccc(-n2ccnc2)cc1 | 0.063 | 2 | Heart rate (Canis familiaris [19]): 0.016; Contractility (LV dP/dt) (Canis familiaris [20]): 0.02; Mean arterial blood pressure (Canis familiaris [21]): 0.03
21 | Cc1nc(O)[nH]c1C(=O)c1ccc(-n2c(C)nc(C)c2C)cc1 |  | > 100 | C20 (Mustela putorius furo [15]): Not reached
22 | CCc1[nH]c(O)nc1C(=O)c1ccc(-n2ccnc2CC)cc1 | 0.1 | 25 | 
23 | Cc1cn(-c2ccc(C(=O)c3[nH]c(O)nc3C)cc2)cn1 | 11 | 65 | 
24 | CSc1ccc(C(=O)c2[nH]c(=O)[nH]c2C)cc1 [ENOXIMONE] | 3.18 |  | Mean arterial blood pressure (Canis familiaris [22]): 2; Heart rate (Canis familiaris [23]): 0.6; Contractility (LV dP/dt) (Canis familiaris [24]): 0.7
25 | CCc1[nH]c(O)nc1C(=O)c1cccc(-n2ccnc2)c1 | 0.1 | 23 | 
26 | Cc1[nH]c(O)nc1C(=O)c1ccc(-n2ccnc2)cc1 | 0.1 | 6 | Contractility (LV dP/dt) (Canis familiaris [25]): <=0.1; Heart rate (Canis familiaris [26]): 0.1; Mean arterial blood pressure (Canis familiaris [27]): 0.9
